Laboratory results published in patent US20200040025A1, “URIDINE NUCLEOSIDE DERIVATIVES, COMPOSITIONS AND METHODS OF USE” (Tufts University, priority 2016, published 2020).

target: T1, P2Y6 receptor (Homo sapiens, UniProt Q15077); assay: Activation of P2Y6 receptor: receptor-induced Ca2+ changes measured with fluo-4; format: cell-based; settings: sodium salts of the test compounds; 1321N1 human astrocytoma cells expressing P2Y6; fluo-4 Ca2+ fluorescence; nonlinear curve fit; read-out: EC50 of synthetic compounds for activation of P2Y6 receptor
T1 construct: expressed in transfected cells; host or cells: 1321N1 human astrocytoma cells
T1 sequence (Q15077 whole entry): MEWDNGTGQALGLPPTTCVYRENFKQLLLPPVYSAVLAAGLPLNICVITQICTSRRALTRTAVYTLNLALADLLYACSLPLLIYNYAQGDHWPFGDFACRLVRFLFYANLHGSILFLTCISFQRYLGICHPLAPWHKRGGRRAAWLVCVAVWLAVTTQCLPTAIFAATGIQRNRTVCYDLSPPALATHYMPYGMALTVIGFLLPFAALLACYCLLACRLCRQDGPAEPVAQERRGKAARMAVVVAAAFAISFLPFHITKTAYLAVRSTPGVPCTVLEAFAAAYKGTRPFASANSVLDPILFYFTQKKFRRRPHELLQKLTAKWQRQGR
Protocol: Synthetic compounds were tested for activation of P2Y6 receptor by measuring receptor induced Ca^2+ changes with the fluorescent Ca^2+ indicator fluo-4. 1321N1 human astrocytoma cell lines either expressing P2Y2, P2Y4 or P2Y6. Receptors were plated into 24-well plates. Two days after plating, fluorometric measurements were made and responses of cells to a serial dilution of the sodium salts of the test compounds were determined. P2Y6 receptor mediated Ca^2+ fluorescent change was determined by normalized accumulation of fluorescent change of 3 timepoints after compound administration subtracted by value from ACSF control. Changes in fluorescent intensity were plotted corresponding to compound concentration in GraphPad.

| SMILES | EC50 [nM] |
| --- | --- |
| O=c1ccn([C@@H]2O[C@H](COP(=O)(O)OP(=O)(O)O)C(O)C2O)c(=O)n1Cc1ccc(-c2ccccc2)cn1 (stereo partly drawn) [Compound 29] | < 500 |
| O=c1ccn([C@@H]2O[C@H](COP(=O)(O)OP(=O)(O)O)C(O)C2O)c(=O)n1Cc1cccc(-c2ccccc2)n1 (stereo partly drawn) [Compound 30] | 1000 to 2000 |
| O=c1ccn([C@@H]2O[C@H](COP(=O)(O)OP(=O)(O)O)C(O)C2O)c(=O)n1Cc1ncccc1-c1ccccc1 (stereo partly drawn) [Compound 31] | > 2000 |
| O=c1ccn([C@@H]2O[C@H](COP(=O)(O)OP(=O)(O)O)C(O)C2O)c(=O)n1Cc1cc(-c2ccncc2)ccn1 (stereo partly drawn) [Compound 32] | 1000 to 2000 |
| O=c1ccn([C@@H]2O[C@H](COP(=O)(O)OP(=O)(O)O)C(O)C2O)c(=O)n1Cc1cc(-c2ccccn2)ccn1 (stereo partly drawn) [Compound 34] | 500 to 1000 |
| O=c1ccn([C@@H]2O[C@H](COP(=O)(O)OP(=O)(O)O)C(O)C2O)c(=O)n1Cc1cc(Cc2ccccc2)ccn1 (stereo partly drawn) [Compound 35] | < 500 |
| O=c1ccn([C@@H]2O[C@H](COP(=O)(O)OP(=O)(O)O)C(O)C2O)c(=O)n1Cc1cc(Oc2ccccc2)ccn1 (stereo partly drawn) [Compound 36] | < 500 |
| O=c1ccn([C@@H]2O[C@H](COP(=O)(O)OP(=O)(O)O)C(O)C2O)c(=O)n1Cc1cc(Nc2ccccc2)ccn1 (stereo partly drawn) [Compound 37] | 500 to 1000 |
| O=c1ccn([C@@H]2O[C@H](COP(=O)(O)OP(=O)(O)O)C(O)C2O)c(=O)n1Cc1cc(C2CCCC2)ccn1 (stereo partly drawn) [Compound 38] | 500 to 1000 |
| O=c1ccn([C@@H]2O[C@H](COP(=O)(O)OP(=O)(O)O)C(O)C2O)c(=O)n1Cc1cc(C2CCCCC2)ccn1 (stereo partly drawn) [Compound 39] | 500 to 1000 |

Continued, values first:

| EC50 [nM] | SMILES |
| --- | --- |
| > 2000 | O=c1ccn([C@@H]2O[C@H](COP(=O)(O)OP(=O)(O)O)C(O)C2O)c(=O)n1Cc1cc(N2CCCCC2)ccn1 (stereo partly drawn) [Compound 40] |
| < 500 | O=c1ccn([C@@H]2O[C@H](COP(=O)(O)OP(=O)(O)O)C(O)C2O)c(=O)n1Cc1cccc(-c2ccccc2)c1 (stereo partly drawn) [Compound 41] |
| < 500 | O=c1ccn([C@@H]2O[C@H](COP(=O)(O)OP(=O)(O)O)C(O)C2O)c(=O)n1Cc1ccc(-c2ccccc2)s1 (stereo partly drawn) [Compound 42] |
| < 500 | O=c1ccn([C@@H]2O[C@H](COP(=O)(O)OP(=O)(O)O)C(O)C2O)c(=O)n1Cc1ncc(-c2ccccc2)s1 (stereo partly drawn) [Compound 43] |
| 1000 to 2000 | O=c1ccn([C@@H]2O[C@H](COP(=O)(O)OP(=O)(O)O)C(O)C2O)c(=O)n1Cc1cnc(-c2ccccc2)s1 (stereo partly drawn) [Compound 44] |
| < 500 | O=c1ccn([C@@H]2O[C@H](COP(=O)(O)OP(=O)(O)O)C(O)C2O)c(=O)n1Cc1ncc(-c2ccccc2)o1 (stereo partly drawn) [Compound 45] |
| 500 to 1000 | O=c1ccn([C@@H]2O[C@H](COP(=O)(O)OP(=O)(O)O)C(O)C2O)c(=O)n1Cc1cnc(-c2ccccc2)o1 (stereo partly drawn) [Compound 46] |
| < 500 | O=c1ccn([C@@H]2O[C@H](COP(=O)(O)OP(=O)(O)O)C(O)C2O)c(=O)n1Cc1ccc(-c2ccccc2)o1 (stereo partly drawn) [Compound 47] |
